# Where two headings read alike, the source gives them in different places.
# What was measured:
# anaerobic bacteria = test: NCCLS agar dilution MIC, anaerobic bacteria (summary); type: cell-based; conditions: anaerobes, Wilkins Chalgren Agar, 48 hour anaerobic incubation; for MIC Range: in µg/mL
# Fusobacterium necrogenes = test: Agar dilution MIC; type: cell-based; conditions: Fusobacterium necrogenes isolate
# [1] = system: Mycobacterium avium intracellulare; test: Agar dilution method (Middlebrook 7H10); type: cell-based; conditions: 504 h, 21 days at 37° C.; for MIC: read-out: G.M. (MIC)
# [2] = system: Mycobacterium tuberculosis; test: Agar dilution method for M. tuberculosis (Middlebrook 7H10); type: cell-based; conditions: 504 h; for MIC90 / MIC: 21 days at 37° C.; for MIC: read-out: G.M. (MIC)
# Prevotella bivia = test: Agar dilution MIC; type: cell-based; conditions: Prevotella bivia isolate
# [3] = system: Porphyromonas asaccharolytica; test: Agar dilution MIC; type: cell-based; conditions: Porphyromonas asaccharolytica isolate
# Porphyromonas gingivalis = test: Agar dilution MIC; type: cell-based; conditions: Porphyromonas gingivalis isolate
# [4] = in vivo; cited from earlier work
# [5] = system: MRSE 879 adherent bacteria; test: Sintered glass adherent bacteria model; type: cell-based; conditions: MRSE 879, sintered glass adherent
# Source text: (§1) Inhibition of slime production • 2. Activity against glass-adherent bacteria.
# (§2) The change in MIC in broth and on sintered glass adherent bacteria is presented in Graph E. [drawing]
# MRSE 879 = test: Broth MIC; type: cell-based; conditions: for MIC: Staphylococcus epidermidis, read-out: broth MIC
# Source text: as §2
# [6] = system: MRSA 1029/99 and MRSE 879/247; test: Inhibition of biofilm (slime) production, safranin staining; type: cell-based; conditions: trypticase soy broth with 2% glucose, overnight 37° C., Graphs A to D
# Method: as §1
# To study the effect of polymorphic ‘Form A’ on the inhibition of biofilm production, the following study was carried out as set forth in Blake et al. J. Clinical Microbiol. 2001; 39:544-550; and Polonio et al. Chemother. 2001; 45:3262-3266. […] Bacterial suspensions (in triplicate) were exposed a doubling dilution of antibiotics and incubated overnight at 37° C. with constant shaking (100 rpm). The next day, after aspirating the medium, the biofilm was stained with safranin (0.1%) for 1 hour at room temperature, washed with distilled water, tapped dry and stain-extracted into 200 μl of 0.2M NaoH and the OD measured at 544 nm.
# Clostridium perfringens = type: cell-based
Molecule,Geometric Mean (MIC) (anaerobic bacteria) [µg/mL],MIC50 (anaerobic bacteria) [µg/mL],MIC90 (anaerobic bacteria) [µg/mL],MIC Range (anaerobic bacteria),MIC (Fusobacterium necrogenes) [µg/mL],MIC50 [1] [µg/mL],MIC90 [1] [µg/mL],MIC [1] [µg/mL],MIC50 [2] [µg/mL],MIC90 [2] [µg/mL],MIC [2] [µg/mL],MIC (Prevotella bivia) [µg/mL],MIC [3] [µg/mL],MIC (Porphyromonas gingivalis) [µg/mL],other results
CC1(C)S[C@@H]2[C@H](NC(=O)[C@H](N)c3ccc(O)cc3)C(=O)N2[C@H]1C(=O)O [Amox],1.37,1,256,0.062-256,0.5,,,,,,,,,,
CC[C@H]1OC(=O)[C@H](C)[C@@H](O[C@H]2C[C@@](C)(OC)[C@@H](O)[C@H](C)O2)[C@H](C)[C@@H](O[C@@H]2O[C@H](C)C[C@H](N(C)C)[C@H]2O)[C@](C)(OC)C[C@@H](C)C(=O)[C@H](C)[C@@H](O)[C@]1(C)O [Clarithromycin],,,,,,1,4,1.55,16,32,12.7,,,,
CCC[C@@H]1C[C@@H](C(=O)N[C@@H]([C@H]2O[C@H](SC)[C@H](O)[C@@H](O)[C@H]2O)[C@H](C)Cl)N(C)C1 [Clindamycin],0.208,0.125,8,0.008-64,0.03,,,,,,,> 32,≤ 0.016,≤ 0.016,
COc1c(N2CCNC(C)C2)c(F)cc2c(=O)c(C(=O)O)cn(C3CC3)c12 (stereo not shown) [Gatifloxacin],0.659,0.5,2,0.06-32,0.5,,,,,,,2,0.25,0.06,
C[C@@H](O)[C@H]1C(=O)N2C(C(=O)O)=C(SCCN=CN)C[C@H]12 [Imipenem],0.084,0.064,1,0.008-4,0.25,,,,,,,0.03,0.03,≤ 0.016,
NNC(=O)c1ccncc1 [Isoniazid],,,,,,32,64,18.1,8,64,3.17,,,,
CC(=O)NC[C@H]1CN(c2ccc(N3CCOCC3)c(F)c2)C(=O)O1 [Linezolid],1.13,1,4,0.25-4,0.5,16,64,20.6,8,64,8,1,1,1,"Cmax [4]: 12000 to 16000 ng/mL; concentration which would kill adherent bacteria [5]: 32 µg/mL; MIC (MRSE 879; MRSE 879, broth): 2 µg/mL"
Cc1ncc([N+](=O)[O-])n1CCO [Metronidazole],0.48,0.5,2,0.062-32,0.25,,,,,,,1,,,
COc1c(N2C[C@@H]3CCCN[C@@H]3C2)c(F)cc2c(=O)c(C(=O)O)cn(C3CC3)c12 [Moxifloxacin],,,,,1,,,,,,,,0.5,0.03,
CC(=O)NC[C@H]1CN(c2ccc(N3CCN(Cc4ccc([N+](=O)[O-])o4)CC3)c(F)c2)C(=O)O1.Cl [Polymorphic ‘Form A’],0.037,0.032,0.25,0.004-1,≤ 0.008,8,32,8.52,4,64,5.44,0.125,≤ 0.008,≤ 0.008,"concentration which would kill adherent bacteria [5]: 2 µg/mL; Inhibition of Biofilm formation [6]: occurs at a lower concentration; MIC (MRSE 879; MRSE 879, broth): 0.5 µg/mL"
CO[C@H]1/C=C/O[C@@]2(C)Oc3c(C)c(O)c4c(O)c(c(/C=N/N5CCN(C)CC5)c(O)c4c3C2=O)NC(=O)/C(C)=C\C=C\[C@H](C)[C@H](O)[C@@H](C)[C@@H](O)[C@@H](C)[C@H](OC(C)=O)[C@@H]1C [Rifampicin],,,,,,1,32,2,64,64,6.35,,,,
C[C@@H]1CN(c2c(F)c(N)c3c(=O)c(C(=O)O)cn(C4CC4)c3c2F)C[C@H](C)N1 [Sparfloxacin],,,,,,4,8,3.53,1,2,0.53,,,,
CN[C@H](CC(C)C)C(=O)N[C@H]1C(=O)N[C@@H](CC(N)=O)C(=O)N[C@H]2C(=O)N[C@H]3C(=O)N[C@H](C(=O)N[C@H](C(=O)O)c4cc(O)cc(O)c4-c4cc3ccc4O)[C@H](O)c3ccc(c(Cl)c3)Oc3cc2cc(c3O[C@@H]2O[C@H](CO)[C@@H](O)[C@H](O)[C@H]2O[C@H]2C[C@](C)(N)[C@H](O)[C@H](C)O2)Oc2ccc(cc2Cl)[C@H]1O [Vancomycin],9.31,32,32,0.5-32,> 16,,,,,,,> 16,2,8,MIC (Clostridium perfringens): 0.5 µg/mL; concentration which would kill adherent bacteria [5]: 8 µg/mL; MIC (MRSE 879; MRSE): 1 µg/mL
Amox + clav,0.423,0.25,8,0.062-32,0.5,,,,,,,≤ 0.125,≤ 0.125,≤ 0.125,
Synercid,1.61,1,16,0.062-16,0.25,,,,,,,2,≤ 0.125,0.25,"concentration which would kill adherent bacteria [5]: 2 µg/mL; broth MIC (MRSE 879; MRSE 879, broth): 0.5 µg/mL"
Teicoplanin,2.04,2,32,0.03-32,> 16,,,,,,,1,0.125,≤ 0.06,
